Reference: paper PMC2572998, “Structures of the Signal Recognition Particle Receptor from the Archaeon Pyrococcus furiosus: Implications for the Targeting Step at the Membrane” (PLoS ONE, 2008)

Molecular target: T1, Pfu-FtsY (Pyrococcus furiosus, UniProt Q8U051)
T1 construct: full-length; N-terminal hexahistidine tag (pET28b, thrombin-cleavable) removed; expressed in E. coli BL21(DE3)-rosetta2; calculated mass 35,810 Da; monomer
T1 sequence (Q8U051 1-322): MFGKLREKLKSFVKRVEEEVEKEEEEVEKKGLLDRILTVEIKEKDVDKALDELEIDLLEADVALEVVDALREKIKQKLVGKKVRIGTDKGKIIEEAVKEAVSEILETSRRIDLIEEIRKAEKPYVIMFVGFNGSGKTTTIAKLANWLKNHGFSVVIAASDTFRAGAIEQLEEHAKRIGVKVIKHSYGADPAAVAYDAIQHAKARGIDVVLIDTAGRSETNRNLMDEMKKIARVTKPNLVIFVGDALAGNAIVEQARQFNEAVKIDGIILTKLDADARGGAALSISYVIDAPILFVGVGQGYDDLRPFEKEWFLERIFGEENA
Assay: X-ray crystal structure, […] Å
Assay type: binding
Conditions: Mg2+; co-crystallised with 10 mM GTP (hydrolysed to GDP), pH 8.0; catalytic site at full occupancy; additional external GDP at crystal contact near insertion box domain (second site, 69% occupancy)

Nc1nc2c(ncn2[C@@H]2O[C@H](COP(=O)(O)OP(=O)(O)O)[C@@H](O)[C@H]2O)c(=O)[nH]1 [GDP]
X-ray crystal structure, 2.0 Å: the crystal structure we obtained showed the presence of GDP•magnesium bound in the catalytic site
